PubChem BioAssay (NCI)
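Where inhibition never reached the appropriate level, the endpoint shown equals the highest concentration tested. Otherwise, values were interpolated linearly from a five-concentration, 48-hour dose response in 96-well plates. GI50 marks 50% less growth. Definition used: TGI = concentration required for complete inhibition of growth.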

Legend:
Test in all cases: NCI anticancer screen, dose series, 48 h
[1] = test system: SF-295 CNS
[2] = test system: MALME-3M melanoma
[3] = test system: MDA-MB-435
[4] = test system: SF-539 CNS
[5] = test system: COLO 205 colon
[6] = test system: TK-10 renal
[7] = test system: ACHN renal
[8] = test system: OVCAR-4 ovarian
[9] = test system: UACC-257 melanoma
[10] = test system: BT-549 breast

Row | SMILES | TGI [1] [µM] | TGI [2] [µM] | TGI [3] [µM] | TGI [4] [µM] | TGI [5] [µM] | TGI [6] [µM] | TGI [7] [µM] | TGI [8] [µM] | TGI [9] [µM] | GI50 [10] [µM] | TGI [10] [µM] | GI50 [1] [µM] | GI50 [2] [µM] | GI50 [3] [µM] | GI50 [4] [µM] | GI50 [5] [µM] | GI50 [6] [µM] | GI50 [8] [µM] | GI50 [9] [µM] | GI50 [7] [µM]
1 | O=CC(O)C(O)C(OC1OC(CO)C(O)C(O)C1O)C(O)CO (stereo not drawn) (tested in a mixture with another compound) | > 100 | > 100 | > 100 | > 100 | > 100 | > 100 | > 100 | > 100 | > 100 |  |  |  |  |  |  |  |  |  |  | 
2 | CCN(CC)C(=O)CCCCCn1c2ccccc2c2c3c(c4c5ccccc5[nH]c4c21)C(=O)N(O)C3=O | 55.7 | 65.7 | 40 | 4.27 | 4.23 | 64 |  | > 100 | 55.1 | 4.66 | 48.5 | 6.07 | 8.2 | 4.04 | 1.92 | 1.97 | 3.64 | 5.06 | 10.7 | 
3 | CCC1=C(c2ccc(OC)cc2)CC[C@]2(CCNC2=O)[C@@H]1C | > 100 | 67.4 | 47.2 | 54.8 | 19.9 | > 100 | 66.8 | 69.5 | 79.1 |  |  |  |  |  |  |  |  |  |  | 
4 | CN1CC[C@]23c4c5ccc(O)c4OC2c2[nH]ncc2C[C@H]3[C@H]1C5 (stereo partly drawn) | > 100 | > 100 | > 100 |  | > 100 | > 100 | > 100 | > 100 | > 100 |  | > 100 |  |  |  |  |  |  |  |  | 
5 | CCOC(=O)n1c2ccccc2c(=O)n1CCO | > 100 | > 100 |  | > 100 | > 100 | > 100 | > 100 | > 100 | > 100 |  | > 100 |  |  |  |  |  |  |  |  | 
6 | CC(=O)OC1COC(Oc2c(C)c3c4c(c2O)[C@@H](C)CC[C@@H]4[C@@H](C)C[C@H]3C=C(C)C)C(O)C1O (stereo partly drawn) | 35.3 | 27.3 | 30.6 |  | > 100 | 31 | 36.8 | 86.5 |  |  |  | 17.9 | 13.2 | 15.4 |  | 26.4 | 16.3 | 25.6 |  | 18.5
7 | COC(=O)c1ccc2c(c1)C(=O)c1c-2n(CCCCl)c(=O)c2cc(OC)c(OC)cc12 | > 100 | > 100 | > 100 |  | > 100 | > 100 | > 100 | > 100 | > 100 |  |  | > 100 | > 100 | > 100 |  | > 100 | > 100 | > 100 | > 100 | > 100
8 | Nc1nc(-c2ccccc2)cc(-c2cc(Cl)ccc2O)n1 | > 100 | > 100 |  | > 100 | > 100 | > 100 | 72.3 | > 100 | > 100 |  |  |  |  |  |  |  |  |  |  | 
9 | COc1ccc(C(=O)/C=C/c2ccc(OCc3ccccc3)c(OC)c2)cc1OC |  | > 100 | > 100 | 7.38 | 22.6 | 43.8 | > 100 | > 100 | > 100 | 2.79 | 8.11 |  | 12.7 | 2.97 | 2.67 | 3.53 | 4.32 | 5.01 | 6.25 | 4.31
10 | CC(C)c1cc(C(C)C)c(Cl)c(Cl)c1O (tested in a mixture with another compound) | 40.9 | 52.9 | 46.1 | 49 | 39.8 | 54.3 | 57.6 |  | 39.3 |  | 40.1 |  |  |  |  |  |  |  |  | 
11 | COc1ccc2nc(-c3ccc(O)cc3)ccc2c1 | > 100 | > 100 |  | > 100 | > 100 | > 100 | > 100 | > 100 | > 100 |  |  |  |  |  |  |  |  |  |  | 
12 | C/C(CC(=O)Nc1cccc(Cl)c1C)=N\N=C(N)N | > 100 | > 100 |  | > 100 | > 100 | > 100 | > 100 | > 100 | > 100 |  |  |  |  |  |  |  |  |  |  | 
13 | C1CCN2CC3CONC3C2C1 (stereo not drawn) | > 100 | > 100 |  | > 100 | > 100 | > 100 | > 100 | > 100 | > 100 |  |  |  |  |  |  |  |  |  |  | 
14 | O=C(Nc1ccc(Br)cc1)Nc1cccc(Br)c1 |  | > 100 |  | > 100 | > 100 |  |  |  | > 100 | > 100 | > 100 |  | 8.69 |  | 15.3 | 4.1 |  |  | > 100 | 
